In US20140350273A1, “PEDIATRIC USES OF CABAZITAXEL” (AVENTIS PHARMA S.A., priority 2012, published 2014):
Read-outs that look alike come from different tables or passages of the source.

Test system: human rhabdomyosarcoma RH-30
Type: in vivo
Conditions: for Average body weight change in % per mouse at nadir / Drug death (Day of death) / Regressions Complete / Regressions Partial / Tumor free survivors at day 120 / day of nadir / Biological interpretation / ΔT/ΔC in % (day 27): 18
Description: This efficacy may be quantified, for example, as changes in tumor volume for each treated (T) and control (C) group, which are calculated for each animal and each day by subtracting the tumor volume on the day of first treatment (staging day) from the tumor volume on the specified observation day. This allows calculating the tumor growth inhibition: ΔT/ΔC=(median delta T/median delta C)×100. Individual tumor volume changes from baseline are thereafter analyzed by a non-parametric two-way ANOVA-TYPE (with factors: group and repeated days) followed by a post-hoc contrasts analysis, with Bonferroni-Holm adjustment for multiplicity, comparing all treated groups to the control group. […] A probability less than 5% (p<0.05) was considered as significant.
Based on the National Cancer Institute (NCl) standards, a ΔT/ΔC≦40% is the minimal level required to declare activity.
The tumor doubling time (in days; Td) was estimated from the plot of the log linear growth of the control group tumors in exponential growth (100 to 1000 mm^3 range) [T. H. Corbett et al., Cancer, 40: 2660-2680 (1977); F. M. Schabel et al., Cancer Drug Development, Part B, Methods in Cancer Research, 17: 3-51, New York, Academic Press Inc. (1979)].
This efficacy may also be quantified by the number of tumor regressions observed after therapy. Individual mice reporting a tumor volume ≦50% of the Day 0 measurement for two consecutive measurements over a seven day period were considered partial responders (PR). Individual mice lacking palpable tumors (<4×4 mm^2 for two consecutive measurements over a seven day period) were classified as complete responders (CR); a CR that persisted until study completion was considered a tumor-free survivor (TFS).
The animals subjected to the experiment are subcutaneously grafted unilaterally with approximately 30 mg of a tumor fragment on day 0. The animals are implanted with a human tumor xenografted in immunocompromized mice. Several days post tumor implantation, mice are randomized according to their body weight to the different groups of treatments and controls. The animals are observed every day. […] The groups are then weighed once or twice a week until the end of the trial.
The tumors are measured 1 to 5 times a week, depending on the tumor doubling time, until the tumor reaches approximately 1,000 mm^3, or until the animal dies (if this occurs before the tumor reaches 1,000 mm^3). The animals are necropsied immediately after euthanasia or death.
The selected tumor model was a human rhabdomyosarcoma RH-30, xenografted in SCID mice [Douglass E C, et al. Cytogenet Cell Genet. 1987; 45(3-4):14855.].
Treatment solutions were prepared first by mixing 1 volume of ethanolic stock solution and 1 volume of polysorbate 80, then by adding 18 volumes of glucose 5% in water.

[1] = 3.5 mg/kg per injection (total 7.0) IV days 14
[2] = 3.5 mg/kg per injection (total 7.0) IV days 14, listed as DOCETAXEL
[3] = 3.5 mg/kg per injection (total 7.0) IV days 14, listed as docetaxel
[4] = 5.6 mg/kg per injection (total 11.2) IV days 14
[5] = 5.6 mg/kg per injection (total 11.2) IV days 14, listed as DOCETAXEL
[6] = 9.0 mg/kg per injection (total 18) IV days 14
[7] = 9.0 mg/kg per injection (total 18) IV days 14, listed as DOCETAXEL
[8] = 14.5 mg/kg per injection (total 29) IV days 14
[9] = 14.5 mg/kg per injection (total 29) IV days 14, listed as DOCETAXEL
[10] = 14.5 mg/kg per injection (total 29) IV days 14, listed as docetaxel

CC(=O)O[C@@]12CO[C@@H]1C[C@H](O)[C@@]1(C)C(=O)[C@H](O)C3=C(C)[C@@H](OC(=O)[C@H](O)[C@@H](NC(=O)OC(C)(C)C)c4ccccc4)C[C@@](O)([C@@H](OC(=O)c4ccccc4)[C@H]21)C3(C)C [Docetaxel, docetaxel]
Average body weight change in % per mouse at nadir [1]: −1.8% | Drug death (Day of death) [1]: 0/6 | Regressions Complete [1]: 0/6 | Regressions Partial [1]: 0/6 | Tumor free survivors at day 120 [1]: 0/6 | day of nadir [1]: (15) day | Biological interpretation [2]: Inactive | ΔT/ΔC in % (day 27) [2]: 77% | Biological interpretation [3]: inactive | ΔT/ΔC in % (day 27) [3]: > 40% | Tumor volume changes from baseline: Median (nMad) (3.5 mg/kg, day 19): 477 | Tumor volume changes from baseline: Median (nMad) (3.5 mg/kg, day 20): 475 | Tumor volume changes from baseline: Median (nMad) (3.5 mg/kg, day 22): 495.5 | Tumor volume changes from baseline: Median (nMad) (3.5 mg/kg, day 25): 621.5 | Tumor volume changes from baseline: Median (nMad) (3.5 mg/kg, day 27): 736 | Tumor volume changes from baseline: Median (nMad) (3.5 mg/kg, day 29): 905.5 | Average body weight change in % per mouse at nadir [4]: −12.1% | Drug death (Day of death) [4]: 0/6 | Regressions Complete [4]: 0/6 | Regressions Partial [4]: 4/6 | Tumor free survivors at day 120 [4]: 0/6 | day of nadir [4]: (25) day | Biological interpretation [5]: Highly | ΔT/ΔC in % (day 27) [5]: <0% | Biological interpretation (5.6 mg/kg per injection (total 11.2) IV days 14, listed as docetaxel): highly active | Tumor volume changes from baseline: Median (nMad) (5.6 mg/kg, day 18): 218 (84.5) | Tumor volume changes from baseline: Median (nMad) (5.6 mg/kg, day 19): 289 (57.1) | Tumor volume changes from baseline: Median (nMad) (5.6 mg/kg, day 20): 409.5 | Tumor volume changes from baseline: Median (nMad) (5.6 mg/kg, day 22): 405.5 | Tumor volume changes from baseline: Median (nMad) (5.6 mg/kg, day 25): −30.5 | Tumor volume changes from baseline: Median (nMad) (5.6 mg/kg, day 29): −47 (89.7) | Tumor volume changes from baseline: Median (nMad) (5.6 mg/kg, day 33): 67 (262.4) | Tumor volume changes from baseline: Median (nMad) (5.6 mg/kg, day 39): 454.5 | Tumor volume changes from baseline: Median (nMad) (5.6 mg/kg, day 41): 712 | Tumor volume changes from baseline: Median (nMad) (5.6 mg/kg, day 43): 1039.5 | Tumor volume changes from baseline: Median (nMad) (5.6 mg/kg, day 35): 129 | Average body weight change in % per mouse at nadir [6]: −11.2% | Drug death (Day of death) [6]: 0/6 | Regressions Complete [6]: 0/6 | Regressions Partial [6]: 2/6 | Tumor free survivors at day 120 [6]: 0/6 | day of nadir [6]: (25) day | Biological interpretation [7]: Highly | ΔT/ΔC in % (day 27) [7]: <0% | Biological interpretation (9.0 mg/kg per injection (total 18) IV days 14, listed as docetaxel): highly active | Tumor volume changes from baseline: Median (nMad) (9 mg/kg, day 18): 202 (98.6) | Tumor volume changes from baseline: Median (nMad) (9 mg/kg, day 19): 202 (71.9) | Tumor volume changes from baseline: Median (nMad) (9 mg/kg, day 20): 325 | Tumor volume changes from baseline: Median (nMad) (9 mg/kg, day 22): 290.5 | Tumor volume changes from baseline: Median (nMad) (9 mg/kg, day 25): 115.5 | Tumor volume changes from baseline: Median (nMad) (9 mg/kg, day 29): 119.5 | Tumor volume changes from baseline: Median (nMad) (9 mg/kg, day 33): 272 | Tumor volume changes from baseline: Median (nMad) (9 mg/kg, day 39): 676 | Tumor volume changes from baseline: Median (nMad) (9 mg/kg, day 41): 904.5 | Tumor volume changes from baseline: Median (nMad) (9 mg/kg, day 43): 909 | Average body weight change in % per mouse at nadir [8]: −17.6% | Drug death (Day of death) [8]: 0/6 | Regressions Complete [8]: 3/6 | Regressions Partial [8]: 5/6 | day of nadir [8]: (27) day | ΔT/ΔC in % (day 27) [8]: 1% | Biological interpretation [9]: Very | Tumor free survivors at day 120 [9]: 0/6 | Biological interpretation [10]: very active | Tumor free survivors at day 120 [10]: without TFS | Tumor volume changes from baseline: Median (nMad) (14.5 mg/kg, day 18): 166.5 | Tumor volume changes from baseline: Median (nMad) (14.5 mg/kg, day 19): 195 (83) | Tumor volume changes from baseline: Median (nMad) (14.5 mg/kg, day 25): 154.5 | Tumor volume changes from baseline: Median (nMad) (14.5 mg/kg, day 27): 13 (67.5) | Tumor volume changes from baseline: Median (nMad) (14.5 mg/kg, day 29): 87 (100.8) | Tumor volume changes from baseline: Median (nMad) (14.5 mg/kg, day 33): 17 (111.2) | Tumor volume changes from baseline: Median (nMad) (14.5 mg/kg, day 46): 18.5 | Tumor volume changes from baseline: Median (nMad) (14.5 mg/kg, day 50): 485 | Tumor volume changes from baseline: Median (nMad) (14.5 mg/kg, day 35): −80 (63.8) | Tumor volume changes from baseline: Median (nMad) (14.5 mg/kg, day 39): −112 | Tumor volume changes from baseline: Median (nMad) (14.5 mg/kg, day 41): −96 (78.6) | Tumor volume changes from baseline: Median (nMad) (14.5 mg/kg, day 43): −72.5
